How the values were obtained:
[1] = system: rat soleus muscles; experiment: Recovery of force in isolated rat soleus nerve-muscle preparations after 115 nM tubocurarine, 50 μM compound (Table 8); details: 40 mins exposure
Experimental: Force traces from a representative muscle stimulated to contract in 1) control condition before addition of neuromuscular blocking agent, 2) the force response to stimulation after 90 minutes incubation with Tubocurarine. […] The traces presented in FIG. 12A (1, 2, 3), correspond to the dotted lines in FIG. 12B, respectively.
Recovery of force is quantified as the percentage of the force prior to tubocurarine that is recovered by the compound.
The current invention relates to compounds that inhibit CIC-1 ion channels and increase muscle excitability and thereby improve muscle function in clinical conditions where muscle activation is failing. Such conditions result in loss of contractile function of skeletal muscle, weakness and excessive fatigue. In this series of experiments the compounds were tested for their ability to restore contractile function of isolated rat muscle when the neuromuscular transmission had been compromised akin to neuromuscular disorders.
Experimentally, soleus muscles from 4-5 wk old rats were isolated with the motor nerve remaining attached. The nerve-muscle preparations were mounted in experimental setups that enabled electrical stimulation of the motor nerve. Stimulation of the motor nerve led to activation of the muscle fibres and ensuing force production that was recorded.
After mounting the nerve-muscle preparation in the experimental setup, the contractile function of the muscle was initially assessed under the control conditions (FIG. 2A). […] The experimental condition mimics the failing neuromuscular transmission in a range of neuromuscular disorders. After addition of tubocurarine the contractile force declined over the next 90 mins to 10-50% of the control force. 50 μM of the test compound was then added and the contractile force recovered despite the continued presence of tubocurarine. To quantify the ability of the compound to restore force the percentage of the initial force that was restored was determined after 40 mins of compound exposure (FIG. 2B) and the point increase is reported in Table 8.

[2] = biological target: T1, human CIC-1 channels (Homo sapiens, UniProt P35523); experiment: Automated patch-clamp on human CIC-1 expressed in CHO cells: shift of half activation voltage ΔV1/2; format: cell-based; details: compound in intracellular solution vs control cell patches; CHO cells expressing human CIC-1
T1 construct: host or cells: CHO (Chinese hamster ovary) cells constitutively expressing human ClC-1
T1 sequence (P35523 whole entry): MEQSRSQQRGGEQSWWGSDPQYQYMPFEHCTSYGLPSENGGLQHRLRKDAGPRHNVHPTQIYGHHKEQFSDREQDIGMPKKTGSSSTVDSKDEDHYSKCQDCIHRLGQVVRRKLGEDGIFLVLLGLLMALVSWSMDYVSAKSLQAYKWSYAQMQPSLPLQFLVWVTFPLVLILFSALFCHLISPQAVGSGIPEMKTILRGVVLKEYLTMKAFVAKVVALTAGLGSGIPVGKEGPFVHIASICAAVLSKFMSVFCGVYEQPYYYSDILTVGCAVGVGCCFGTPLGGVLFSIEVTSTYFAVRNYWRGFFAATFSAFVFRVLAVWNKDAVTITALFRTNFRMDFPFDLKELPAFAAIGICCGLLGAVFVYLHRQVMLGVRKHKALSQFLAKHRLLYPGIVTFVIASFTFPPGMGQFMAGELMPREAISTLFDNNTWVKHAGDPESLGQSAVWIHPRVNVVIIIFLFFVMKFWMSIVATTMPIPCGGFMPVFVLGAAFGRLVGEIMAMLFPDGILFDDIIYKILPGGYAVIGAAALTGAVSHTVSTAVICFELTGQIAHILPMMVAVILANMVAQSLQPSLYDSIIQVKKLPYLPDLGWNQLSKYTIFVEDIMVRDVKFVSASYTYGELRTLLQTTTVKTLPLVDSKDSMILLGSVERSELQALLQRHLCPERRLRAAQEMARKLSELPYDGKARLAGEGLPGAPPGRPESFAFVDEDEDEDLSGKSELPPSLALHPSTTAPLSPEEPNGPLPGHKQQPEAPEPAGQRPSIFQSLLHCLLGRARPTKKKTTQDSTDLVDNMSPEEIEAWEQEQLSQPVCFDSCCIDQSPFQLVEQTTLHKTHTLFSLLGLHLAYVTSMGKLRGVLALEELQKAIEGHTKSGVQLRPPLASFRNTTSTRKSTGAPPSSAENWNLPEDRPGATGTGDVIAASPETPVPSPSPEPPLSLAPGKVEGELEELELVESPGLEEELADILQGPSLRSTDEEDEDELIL
Experimental: FIGS. 13A-13B: FIG. 13A illustrates the voltage protocol used to evoke currents in whole cell patches of CHO cells expressing human CIC-1 channels.
Experiments were performed using an automated patch clamp system that allowed high throughput testing of whole cell patches together with both intracellular and extracellular addition of compound.
Automated whole cell patch clamp experiments were performed with the Qpatch 16 system (Sophion Bioscience, Ballerup, Denmark) at room temperature. Data acquisition and analysis were performed in the Qassay software (ver. 5.6, Odense).
To evoke CIC-1 currents in whole cell patches, the membrane potential was initially stepped from a holding potential of −30 mV to +60 mV for 100 ms and then to various test voltages (sweeps) ranging from +120 mV to −140 mV in steps of 20 mV for 300 ms. To obtain tail currents, the membrane potential was stepped to −100 mV after each test voltage for 300 ms and then relaxed to −30 mV for 2 sec between sweeps (FIG. 3).
I/V relationships for whole cell instant and steady state current amplitudes were obtained by plotting average current densities at the beginning and at the end of the 300 ms step against the membrane potential (FIG. 4).
In order to determine the relative overall open probability (Po), the instantaneous tail currents were normalized to the maximal tail current obtained following the most positive voltage step and plotted against the test voltage. Plots of normalized tail currents from each whole cell patch were then fitted to a Boltzmann function allowing determination of half activation voltages (V1/2, FIG. 5).
For automated patch clamp experiments extracellular solutions contained: 2 mM CaCl2), 1 mM MgCl2, 10 mM HEPES, 4 mM KCl, 145 mM NaCl, 10 mM Glucose, pH adjusted to 7.4 with NaOH (2 M). Osmolality adjusted to ˜320 using sucrose.
Intracellular solutions contained: 80 mM CsF, 60 mM CsCl, 5/1 mM KOH/EGTA, 10 mM HEPES, 10 mM NaCl, pH adjusted to 7.2 with NaOH (2 M). Osmolality adjusted to ˜320 mOsm using sucrose.
Cells used in patch clamp experiments were Chinese hamster ovary cells (CHO) constitutively expressing human CIC-1 channels. The amino acid sequence encoded by the cDNA used to create this cell line was identical to the translated sequence for GenBank accession number NM_000083.2. Cells were produced by Charles River (Catalogue CT6175, Cleveland OH, USA) in a cryopreserved format. Experiments were performed on the cells directly after thawing (3×10^6 cells used in each experiment).
To evaluate the compound effect on CIC-1, when applied directly to the intracellular side of the cell membrane, the half activation voltage, V1/2, was determined from whole cell patches with compound added to the intracellular solution and then compared to V1/2 determined from control cell patches with only vehicle added to the intracellular solution. Additionally, the effect of extracellular added compound was evaluated by determine V1/2 and steady state current amplitudes before and after exchanging the extracellular solution to contain compound.
The difference in half activation voltage of CIC-1 channels, ΔV1/2, was determined as the difference between the cell patches treated intracellularly with compound and control cells patches and is reported in Table 4 below. A positive shift in ΔV 1/2 is reflecting CIC-1 channel inhibition by the tested compound. P-values of <0.05 is considered significant.

[3] = biological target: T2, CIC-1 channels (Rattus norvegicus, UniProt P35524); experiment: Electrophysiological measurement of compound inhibition of CIC-1 (Gm) in rat soleus muscle fibres: EC50 (Table 7)
T2 sequence (P35524 1-994): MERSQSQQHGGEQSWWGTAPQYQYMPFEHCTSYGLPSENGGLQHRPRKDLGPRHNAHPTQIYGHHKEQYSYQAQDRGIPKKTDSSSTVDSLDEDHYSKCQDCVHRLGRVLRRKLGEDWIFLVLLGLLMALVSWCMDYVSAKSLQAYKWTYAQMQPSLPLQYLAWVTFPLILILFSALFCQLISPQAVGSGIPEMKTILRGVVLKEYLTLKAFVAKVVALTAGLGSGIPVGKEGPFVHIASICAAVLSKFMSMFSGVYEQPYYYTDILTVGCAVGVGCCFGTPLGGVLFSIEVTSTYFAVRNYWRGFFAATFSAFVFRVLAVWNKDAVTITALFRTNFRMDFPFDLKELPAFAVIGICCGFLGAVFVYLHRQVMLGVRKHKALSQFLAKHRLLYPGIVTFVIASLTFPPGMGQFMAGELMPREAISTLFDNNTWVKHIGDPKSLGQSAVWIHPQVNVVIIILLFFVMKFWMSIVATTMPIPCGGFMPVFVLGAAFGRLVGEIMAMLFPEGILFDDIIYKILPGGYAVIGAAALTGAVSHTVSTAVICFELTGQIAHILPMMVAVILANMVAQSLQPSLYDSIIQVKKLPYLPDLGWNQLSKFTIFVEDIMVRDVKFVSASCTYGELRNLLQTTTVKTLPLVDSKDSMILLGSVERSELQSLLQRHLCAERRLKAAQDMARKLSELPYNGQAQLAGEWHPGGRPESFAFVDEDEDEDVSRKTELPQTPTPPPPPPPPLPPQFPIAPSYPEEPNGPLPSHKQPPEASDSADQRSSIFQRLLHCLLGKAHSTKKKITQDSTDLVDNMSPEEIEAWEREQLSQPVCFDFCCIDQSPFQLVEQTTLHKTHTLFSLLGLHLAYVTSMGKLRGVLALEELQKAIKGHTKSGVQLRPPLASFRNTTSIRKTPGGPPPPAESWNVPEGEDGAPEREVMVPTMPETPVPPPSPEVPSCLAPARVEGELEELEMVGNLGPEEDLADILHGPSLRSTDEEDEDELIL

[4] = system: female Lewis rats; experiment: In situ isometric hindlimb force in anaesthetised rats with neuromuscular transmission partially inhibited by Cisatracurium; format: in vivo, rat; details: 80 Hz stimulation, Cisatracurium infusion
Experimental: Isometric hindlimb force was measured in 12-week old female Lewis rats in the presence and absence of compound.
Rats were placed under anesthesia with isoflurane (2-4%), intubated and subsequently connected to a micro ventilator (Microvent 1, Hallowell EMC, US). Two stimulation electrodes were inserted through the skin to stimulate the sciatic nerve. A small incision was made proximal to the ankle, to expose the Achilles tendon, which was tied by cotton string, and connected to a force transducer (Fort250, World Precision Instruments) with adjustable position (Vernier control). The Achilles tendon was then cut distal to the attached cotton string. The rat was placed on a heated pad, and to prevent movement artefacts from contraction of the ankle dorsiflexors, the foot was fixated by tape on a footplate.
Muscle contractile properties were assessed by applying an electrical current (under supramaximal voltage conditions) to the nerve and recording the force generated by the muscle. The muscle was stretched until maximal force was obtained, when assessed by 2 Hz stimulation. Isometric force was measured every 30 seconds at 12 Hz (Twitch), 10 pulses, and at every 5 minutes at 80 Hz (Tetanic) for 1 second (80 pulses). This stimulation pattern was employed throughout the experiment, expect in few cases where 80 Hz stimulation was replaced by 12 Hz (10 pulses). […] When the level of neuromuscular inhibition was stable, the test article was injected i.v. at the chosen concentration. The effect of test article was assessed on its ability to increase force generated from the stimulation pattern applied. The effect was assessed in the ability to increase force per se (tetanic, 80 Hz, stimulation), and the ratio between individual twitch peaks (12 Hz stimulation). The effect was monitored for at least 1 hour after injection of test article. In addition, the time from injection of test article to maximal effect on force (both twitch and tetanic) was noted and the time for the effect to disappear (return to baseline), if possible. When appropriate the infusion of neuromuscular blocking agent was ceased, with the stimulation pattern continued, and the return of force to control levels was monitored. Animals were sacrificed by cervical dislocation while still fully sedated.

[5] = system: rat soleus muscles; experiment: Recovery of nerve-stimulated force in isolated rat soleus muscles with ACh receptors inhibited by 2 μM rocuronium; details: 2 μM rocuronium alone; 8 muscles
Experimental: In a separate series of experiments with 8 isolated rat soleus muscles, ACh receptors were inhibited using 2 μM rocuronium, which is a clinically used neuromuscular blocking agent. Under these conditions the nerve-stimulated force was reduced to 51±5% of force before rocuronium. […] This illustrates the potential of these compounds to be used as reversal agents.

Row | SMILES | Δ1/2 (mV) [2] [mV] | EC50 [3] [µM] | Point increase (%) of initial force that was restored [1] [%] | average increase in tetanic force ([4]; 40.0 mg/kg i.v.) [%] | average increase in tetanic force ([4]; 26.5 mg/kg i.v.) [%] | nerve-stimulated force, % of force before rocuronium [5] [%]
1 | CC[C@H](Oc1ccc(Br)cc1-c1ccon1)C(=O)O [Compound A-2, (2S)-2-[4-bromo-2-(1,2-oxazol-3-yl)phenoxy]butanoic acid] | 7.2 | 4.3 | 27 |  |  | 
2 | C[C@H](Oc1ccc(Br)cc1-c1ccon1)C(=O)O [Compound A-16, (2S)-2-[4-bromo-2-(1,2-oxazol-3-yl)phenoxy]propanoic acid] | 14.1 | 1.8 ± 1.1 | 48 |  |  | 
3 | C[C@H](Oc1ccc(Br)cc1-c1ccno1)C(=O)O [Compound A-22, (2S)-2-[4-bromo-2-(1,2-oxazol-5-yl)phenoxy]propanoic acid] | 9.3 | 7.5 | 27 |  |  | 
4 | O=C(O)[C@H](CC1CC1)Oc1ccc(Br)cc1-c1ccon1 [Compound A-33, (2S)-2-[4-bromo-2-(1,2-oxazol-3-yl)phenoxy]-3-cyclopropylpropanoic acid] | 15.1 | 4.6 | 35 |  |  | 
5 | C=CC[N+]1([C@H]2C[C@H]3[C@@H]4CC[C@H]5C[C@H](O)[C@@H](N6CCOCC6)C[C@]5(C)[C@H]4CC[C@]3(C)[C@H]2OC(C)=O)CCCC1 [rocuronium, reference compound] |  |  |  |  |  | 51±5

The next lines start with results.

Row | Δ1/2 (mV) [2] [mV] | EC50 [3] [µM] | SMILES | Point increase (%) of initial force that was restored [1] [%] | average increase in tetanic force ([4]; 40.0 mg/kg i.v.) [%] | average increase in tetanic force ([4]; 26.5 mg/kg i.v.) [%] | nerve-stimulated force, % of force before rocuronium [5] [%]
6 | 8.1 | 2 | C[C@H](Oc1ccc(Cl)cc1-c1ccon1)C(=O)O [Compound A-34, (2S)-2-[4-chloro-2-(1,2-oxazol-3-yl)phenoxy]propanoic acid] | 43 |  |  | 
7 |  | 4.3 | O=C(O)[C@H](CC1CC1)Oc1ccc(Cl)cc1-c1ccon1 [Compound A-41, (2S)-2-[4-chloro-2-(1,2-oxazol-3-yl)phenoxy]-3-cyclopropylpropanoic acid] | 25 | 36.4 |  | 
8 | 6.8 | 3.2 | C[C@H](Oc1ccc(Br)cc1-c1cocn1)C(=O)O [Compound A-42, (2S)-2-[4-bromo-2-(1,3-oxazol-4-yl)phenoxy]propanoic acid] | 14 |  |  | 
9 | 12.8 |  | C[C@H](Oc1ccc(Br)cc1-c1nncs1)C(=O)O [Compound A-65, (2S)-2-[4-bromo-2-(1,3,4-thiadiazol-2-yl)phenoxy]propanoic acid] |  |  |  | 
10 |  | 8.1 ± 1.2 | CCOC[C@H](Oc1ccc(Br)cc1-c1ccon1)C(=O)O [Compound A-81, (2S)-2-[4-bromo-2-(1,2-oxazol-3-yl)phenoxy]-3-ethoxypropanoic acid] | 45 |  | 52.9 | 
11 | 10.3 |  | C[C@H](Oc1ccc(Cl)cc1-c1ccsn1)C(=O)O [Compound A-83, (2S)-2-[4-chloro-2-(1,2-thiazol-3-yl)phenoxy]propanoic acid] |  |  |  | 
